Holding throughout (assay): Antimicrobial screening, disc diffusion
What all share (format): cell-based

In assay [1] the test system is Aspergillus fumigatus (RCMB 2003). The following applies: compounds isolated from Cunninghamella elegans. The procedure: (§1) The alcoholic extracts obtained were used for testing their antimicrobial activity. Each extract (0.5 g) was dissolved in 10 ml water. Same concentrations for the successive extracts (using diethyl ether, chloroform, ethyl acetate and n-butanol) were also prepared.
(§2) The representatives of Gram negative bacteria, namely Salmonella typhimuium (RCMB 0104), Escherichia coli (RCMB 0103), Pseudomonas aeruginosa (RCMB 0102) and Gram positive bacteria, namely Bacillus subtilis (RCMB 0107), Staphylococcus aureus (RCMB 0106), Streptococcus pyogenes (RCMB 0109), unicellular fungi, namely Candida albicans (RCMB 5002) and filamentous fungi, namely Aspergillus fumigatus (RCMB 2003) and Penicllium expansum (RCMB 1006) were used as test organisms (RCMB: The Regional Center for Mycology and Biotechnology, Al-azhar University Nasser City, Cairo, Egypt).
(§3) For antimicrobial screening the well known disc diffusion and agar well diffusion methods were used, together with the determination of minimum inhibitory concentration (MIC), see Duguid et al., Microbial Infections, The English Language Book Society, Churchill Livingston, Edingburgh, London, 1978; vol. 1, page 110.
(§4) Disc diffusion method: The agar disc diffusion method is employed for the determination of antimicrobial activities of the extracts of the investigated fungal species. Sterilized paper discs (Whatman No. 1) ([…]) were separately soaked in the extracts and transferred onto the surface of growth media seeded with the test organism. After incubation period, following suitable conditions for the test organism, the diameter of the inhibition zone around the discs was measured in millimeters. The obtained result was the mean of three experiments.
(§5) Each fungal species was grown on malt extract media at 28±2° C. for 14 days. The metabolites of the fungal species were screened for antimicrobial activity. The inhibition zones around each disc were measured, in millimeter, and recorded (Tables 1).

Assay [2] relates to Bacillus subtilis (RCMB 0107). The following applies: compounds isolated from Cunninghamella elegans. The procedure:
as §1, §2, §3, §4, §5

Assay [3] has as its system Candida albicans (RCMB 5002). The conditions noted are these: compounds isolated from Cunninghamella elegans. The procedure:
as §1, §2, §3, §4, §5

Assay [4] concerns Escherichia coli (RCMB 0103). The conditions noted are these: compounds isolated from Cunninghamella elegans. The procedure:
as §1, §2, §3, §4, §5

Assay [5] has as its system Penicllium expansum (RCMB 1006). The conditions noted are these: Penicillium expansum; compounds isolated from Cunninghamella elegans. The procedure:
as §1, §2, §3, §4, §5

The subject of assay [6] is Pseudomonas aeruginosa (RCMB 0102). The following applies: Pseudomonas aeurginosa; compounds isolated from Cunninghamella elegans. The procedure:
as §1, §2, §3, §4, §5

Assay [7] relates to Staphylococcus aureus (RCMB 0106). The conditions noted are these: compounds isolated from Cunninghamella elegans. The procedure:
as §1, §2, §3, §4, §5

For assay [8], the system named is Streptococcus pyogenes (RCMB 0109). The conditions noted are these: compounds isolated from Cunninghamella elegans. Here is the method: as §1, §2, §3, §4, §5
In assay [9] the test system is Salmonella typhimuium (RCMB 0104). The conditions noted are these: Salmonella typhimuim; compounds isolated from Cunninghamella elegans. The procedure:
as §1, §2, §3
Disc diffusion method: The agar disc diffusion method is employed for the determination of antimicrobial activities of the extracts of the investigated fungal species. Sterilized paper discs (Whatman No. 1) ([…]) were separately soaked in the extracts and transferred onto the surface of growth media seeded with the test organism. After incubation period, following suitable conditions for the test organism, the diameter of the inhibition zone around the discs was measured in millimeters.
Each fungal species was grown on malt extract media at 28±2° C. for 14 days. The metabolites of the fungal species were screened for antimicrobial activity.

Consider `Nc1ncnc2c1ncn2C1OC(CO)C(O)C1O` (stereo not shown) [Compound 4, 2-(6-amino-9H-purine-9-yl)-5-(hydroxymethyl)oxolane-3,4-diol], for which the “Diameter of inhibition zone” value in assay [1], in assay [2], in [3], in [4], in [5] and in assay [6] was 00.0 mm throughout. Besides, the “Diameter of inhibition zone” value in assay [7] is given as 30.0 ± 0.1 mm; in assay [7] (listed as compound 4), 30.0±0.01 mm; in assay [8], 00.0 mm; in [9], 00.0 mm.

The values are drawn from patent US20130224239A1, “ALCOHOLIC EXTRACT OF FUNGI OF GENUS […] AND USE THEREOF” (KING SAUD UNIVERSITY, priority 2011, published 2013).
